The source of these data is ChEMBL document CHEMBL1201862, “PubChem BioAssay data set” (2004).

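1) Cells in 96-well plates. 2) Compound, 48 h, 5 concentrations. 3) Linear interpolation between surrounding doses. 4) Unreached endpoint = highest concentration. GI50 is the concentration that inhibits growth by half.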 The source made the active and inactive calls. Rule as the data show it: active = GI50 up to about 1.1 µM and inactive = higher.

Holding throughout (assay): growth of human tumour cells (NCI), 48 h
Experiment [1] concerns 786-0.
The subject of experiment [2] is A549.
Experiment [3] has as its system ACHN.
In experiment [4] the test system is CAKI-1.
The test system of experiment [5] is COLO 205.
In experiment [6] the test system is EKVX.
For experiment [7], the system named is HCC 2998.
For experiment [8], the system named is HOP-92.
Experiment [9] concerns LOX IMVI.
Experiment [10] has as its system M14.
Experiment [11] deals with MDA-MB-435.
Experiment [12] relates to MDA-N.
Experiment [13] deals with NCI-H522.
For experiment [14], the system named is RPMI-8226.
The subject of experiment [15] is RXF 393.
The subject of experiment [16] is SF-295.
The subject of experiment [17] is SK-MEL-28.
In experiment [18] the test system is SK-OV-3.
The test system of experiment [19] is SN12C.
Experiment [20] deals with SNB-75.

`O=C1CCC[C@@H]2NC[C@@H](c3ccc4c(c3)OCO4)[C@H]12`: the GI50 in [1], in [2], in [3], in [4], in experiment [5] and in [6] was > 25 µM (inactive) each time. The GI50 in experiment [7], in [8], in experiment [9], in [10], in experiment [11] and in experiment [12] was > 25 µM (inactive) throughout. The GI50 in experiment [13], in experiment [14], in [15], in experiment [16], in experiment [17] and in experiment [18] was > 25 µM (inactive) in each case. For the same compound, the GI50 in [19] and in experiment [20] was > 25 µM (inactive) in each case.
Regarding `COc1cccc2c1/c(=C/c1ccc(N(C)C)cc1)c1cc(-c3ccccc3)[n+](C)n12`, the GI50 in experiment [1] was 0.074 µM (active); in experiment [2] it was 0.112 µM (active); in experiment [3] it was 0.216 µM (active); in [4], 0.804 µM (active); in [5] it was 0.0272 µM (active); in experiment [7], 0.0348 µM (active). The GI50 in [8] is 0.0414 µM (active); in experiment [9] it was 0.153 µM (active); in [10], 0.126 µM (active); in experiment [11], 0.0773 µM (active); in experiment [12], 0.0826 µM (active); in experiment [13], 0.168 µM (active). The GI50 in experiment [14] is 0.0202 µM (active); in [15], 0.528 µM (active); in experiment [16] it was 0.0813 µM (active); in experiment [17], 0.239 µM (active); in [18], 0.223 µM (active); in experiment [19], 0.0331 µM (active). For the same compound, the GI50 in [20] is 0.189 µM (active).
In the case of `CS(=O)(=O)OCCN(CCOS(C)(=O)=O)c1ccc(/C=N/c2ccc(-c3csc(Cc4ccccc4)n3)cc2)c(Cl)c1`, the GI50 in [1] is 23 µM (inactive); in experiment [2], 11.6 µM (inactive); in experiment [3], 30.7 µM (inactive); in experiment [4] it was 1.23 µM (inactive); in [5] it was 15.1 µM (inactive); in [6], 36.5 µM (inactive). The GI50 was 10.9 µM (inactive) in experiment [7]; 0.596 µM (active) in experiment [8]; 20.1 µM (inactive) in [9]; 25.3 µM (inactive) in experiment [10]; 21 µM (inactive) in experiment [11]; 21.6 µM (inactive) in experiment [12]. In addition, the GI50 in experiment [13] was > 43.4 µM (inactive); in experiment [14], 23.8 µM (inactive); in experiment [15], 33.7 µM (inactive); in experiment [16] it was 30.2 µM (inactive); in experiment [17], 45.1 µM (inactive); in experiment [18], 43.5 µM (inactive). Further, the GI50 in experiment [19] is 28.8 µM (inactive); in [20], 15.5 µM (inactive).
`COc1ccccc1C1C2=C(COC2=O)OC(C)(C)Oc2cc3c(cc21)OCO3` (centres undefined): the GI50 in experiment [1] was 3.83 µM (inactive); in experiment [2] it was 5.13 µM (inactive); in [3] it was 7.91 µM (inactive); in experiment [4], 3.33 µM (inactive); in [5] it was 1.04 µM (active); in experiment [6], 3.56 µM (inactive). For the same compound, the GI50 in experiment [7] was 7.29 µM (inactive); in experiment [8], 8.65 µM (inactive); in experiment [9], 5.16 µM (inactive); in experiment [10] it was 3.18 µM (inactive); in experiment [11], 0.564 µM (active); in [12], 0.65 µM (active). Besides, the GI50 is 1.99 µM (inactive) in [13]; 4.03 µM (inactive) in [14]; 1.06 µM (active) in experiment [15]; 2.67 µM (inactive) in [16]; 7.28 µM (inactive) in [17]; 4 µM (inactive) in [18]. The results for the GI50 in experiment [19] and in [20] were 5.48 µM (inactive) and 3.59 µM (inactive), respectively.
As for `COC(=O)c1cc(OC)c(OC)c(OC)c1-c1cc2c(cc1C=O)OCO2`, the GI50 in experiment [1], in experiment [2], in experiment [3], in [4], in experiment [5] and in [6] was > 10 µM (inactive) each time. For the same compound, the GI50 in experiment [7], in experiment [8], in experiment [9], in experiment [10], in experiment [11] and in [12] was > 10 µM (inactive) in each case. Moreover, the GI50 in experiment [13], in [14], in experiment [15], in experiment [16], in experiment [17] and in experiment [18] was > 10 µM (inactive) each time. Further, the GI50 in experiment [19] and in [20] was > 10 µM (inactive) throughout.
For `O=C(Cn1c2ccc(Br)cc2c2nc3ccccc3nc21)Nc1ccccc1`, the GI50 in [1] was 14.3 µM (inactive); in experiment [2], 17 µM (inactive); in experiment [3], 50 µM (inactive); in experiment [4], 26.8 µM (inactive); in [5] it was 50.6 µM (inactive); in experiment [7], 34.8 µM (inactive). For the same compound, the GI50 in experiment [8] is 14.1 µM (inactive); in experiment [9] it was 15.8 µM (inactive); in experiment [10], 30.1 µM (inactive); in experiment [11], 51.4 µM (inactive); in [12] it was 37.7 µM (inactive); in [13] it was 21.6 µM (inactive). Besides, the GI50 in [14] is 37.7 µM (inactive); in experiment [15], 20.2 µM (inactive); in experiment [16], 31.3 µM (inactive); in experiment [17] it was 36.1 µM (inactive); in experiment [18], > 100 µM (inactive); in [19], 42.6 µM (inactive). In addition, the GI50 in experiment [20] is 21.3 µM (inactive).
For the compound `COC1=C(Br)C(O)C2(C=C1Br)CC(C(=O)NCCCCNC(=O)C1=NOC3(C=C(Br)C(OC)=C(Br)C3O)C1)=NO2` (centres undefined), the GI50 is 31.1 µM (inactive) in experiment [1]; 30.6 µM (inactive) in experiment [2]; 26.3 µM (inactive) in [3]; 63.4 µM (inactive) in experiment [4]; 15.8 µM (inactive) in experiment [5]; 52.1 µM (inactive) in experiment [7]. Also, the GI50 is 26.2 µM (inactive) in experiment [8]; 17 µM (inactive) in experiment [9]; 15.5 µM (inactive) in [10]; 19.9 µM (inactive) in experiment [11]; 16.7 µM (inactive) in experiment [12]; 11.3 µM (inactive) in [13]. Besides, the GI50 was 8.99 µM (inactive) in [14]; 24.8 µM (inactive) in [15]; 25.1 µM (inactive) in experiment [16]; 25.5 µM (inactive) in [17]; 27.2 µM (inactive) in [18]; 25.6 µM (inactive) in experiment [19]. Further, the GI50 in experiment [20] was 16.9 µM (inactive).
Turning to `Cc1cc(S(=O)(=O)/N=C(\NN)NNc2cccc(C(F)(F)F)n2)c(S)cc1Cl`, the GI50 is 19.4 µM (inactive) in experiment [1]; 22.8 µM (inactive) in [2]; 21.4 µM (inactive) in experiment [3]; 20.8 µM (inactive) in [4]; 19.5 µM (inactive) in experiment [5]; 22.6 µM (inactive) in experiment [6]. Also, the GI50 was 16.5 µM (inactive) in [7]; 4.21 µM (inactive) in experiment [8]; 18.9 µM (inactive) in [9]; 17.9 µM (inactive) in experiment [10]; 18.2 µM (inactive) in [11]; 14.8 µM (inactive) in experiment [12]. Also, the GI50 in experiment [13] was 24.4 µM (inactive); in [14], 32.1 µM (inactive); in experiment [15], 29 µM (inactive); in [17], 15 µM (inactive); in experiment [18], 25.4 µM (inactive); in experiment [19], 30.6 µM (inactive). Also, the GI50 in [20] was 14.6 µM (inactive).
Take `Cc1c(O)ccc2c(O)c(NC(=O)c3ccc4c(c3)CCC(C)(C)O4)c(=O)oc12` [CYCLONOVOBIOCIC ACID]: the GI50 in experiment [1], in experiment [2], in experiment [3], in experiment [4], in [5] and in experiment [6] was > 100 µM (inactive) throughout. In addition, the GI50 in experiment [7], in experiment [8], in experiment [9], in experiment [11], in experiment [12] and in experiment [13] was > 100 µM (inactive) in each case. In addition, the GI50 in experiment [14], in experiment [15], in experiment [16], in experiment [17], in experiment [18] and in experiment [19] was > 100 µM (inactive) in each case. Also, in [20], the GI50 was > 100 µM (inactive).
For `Cc1nc2c(=O)n(C)c(=O)n(C)c2o1`, the GI50 in experiment [1], in experiment [2], in experiment [3], in experiment [4], in [5] and in [6] was > 100 µM (inactive) in each case. Also, the GI50 in experiment [7], in experiment [8], in [9], in experiment [10], in experiment [11] and in experiment [12] was > 100 µM (inactive) in each case. The GI50 in experiment [13], in [14], in experiment [15], in experiment [16], in [18] and in experiment [19] was > 100 µM (inactive) throughout. Besides, the GI50 in [20] is > 100 µM (inactive).
